PubChem BioAssay AID2060884 (Molecular Pharmacology Branch, DTP, NCI, 2025)

System: NCI-H929 complex spheroids, viability % test/control
Assay: Anticancer human tumor NCI-H929 cell line growth inhibition [RAS];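 also: compound exposure lasted seven days before viability was read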;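 as to viability, T/C: 100% = DMSO vehicle control viability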
Conditions: for IC50: curve of first compound; for viability, T/C: stronger effect = lower value
Procedure, shortened: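 Multi-cell-type spheroids: tumor cells plus HUVEC endothelial cells and mesenchymal stem cells. RAS-pathway inhibitors were combined with targeted agents, each dosed in half-log steps down from clinical Cmax, or from 10 microM when Cmax was unknown.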

[1] = second compound 0.0316 µM, first compound 0.0316 µM
[2] = second compound 0.0316 µM, first compound 0.1 µM
[3] = second compound 0.1 µM, first compound 0.0316 µM
[4] = second compound 0.1 µM, first compound 0.1 µM
[5] = second compound 0.316 µM, first compound 0.0316 µM
[6] = second compound 0.316 µM, first compound 0.1 µM
[7] = second compound 1 µM, first compound 0.0316 µM
[8] = second compound 1 µM, first compound 0.1 µM
[9] = second compound 3.16 µM, first compound 0.0316 µM
[10] = second compound 3.16 µM, first compound 0.1 µM
[11] = second compound 10 µM, first compound 0.0316 µM
[12] = second compound 10 µM, first compound 0.1 µM
[13] = second compound 0.0316 µM, first compound 0.316 µM
[14] = second compound 0.0316 µM, first compound 1 µM
[15] = second compound 0.0316 µM, first compound 3.16 µM
[16] = second compound 0.0316 µM, first compound 10 µM
[17] = second compound 0.1 µM, first compound 0.316 µM
[18] = second compound 0.1 µM, first compound 1 µM
[19] = second compound 0.1 µM, first compound 3.16 µM
[20] = second compound 0.1 µM, first compound 10 µM
[21] = second compound 0.316 µM, first compound 0.316 µM
[22] = second compound 0.316 µM, first compound 1 µM
[23] = second compound 0.316 µM, first compound 3.16 µM
[24] = second compound 0.316 µM, first compound 10 µM
[25] = second compound 1 µM, first compound 0.316 µM
[26] = second compound 1 µM, first compound 1 µM
[27] = second compound 1 µM, first compound 3.16 µM
[28] = second compound 1 µM, first compound 10 µM
[29] = second compound 0.00316 µM, first compound 0.0316 µM
[30] = second compound 0.00316 µM, first compound 0.1 µM
[31] = second compound 0.00316 µM, first compound 0.316 µM
[32] = second compound 0.00316 µM, first compound 1 µM
[33] = second compound 0.00316 µM, first compound 3.16 µM
[34] = second compound 0.00316 µM, first compound 10 µM
[35] = second compound 0.01 µM, first compound 0.0316 µM
[36] = second compound 0.01 µM, first compound 0.1 µM
[37] = second compound 0.01 µM, first compound 0.316 µM
[38] = second compound 0.01 µM, first compound 1 µM
[39] = second compound 0.01 µM, first compound 3.16 µM
[40] = second compound 0.01 µM, first compound 10 µM

In the case of CC(C)n1nc(-c2ccc3oc(N)nc3c2)c2c(N)ncnc21 + C#Cc1c(F)ccc2cc(O)cc(-c3ncc4c(N5CC6CCC(C5)N6)nc(OCC56CCCN5CC(F)C6)nc4c3F)c12, the IC50 (second compound 0.0316 µM) is reported as 61.6 nM, the IC50 (second compound 0.1 µM) is reported as 61.7 nM and the IC50 (second compound 0.316 µM) is reported as 61.5 nM. For the same molecule, the IC50 (second compound 1 µM) was 60.2 nM, the IC50 (second compound 3.16 µM) was 60.1 nM and the IC50 (second compound 10 µM) was 44.6 nM. For the same molecule, the viability, T/C (second compound 0.0316 µM, first compound 0.000316 µM) was 96.7%, the viability, T/C (second compound 0.0316 µM, first compound 0.001 µM) was 97.5% and the viability, T/C (second compound 0.0316 µM, first compound 0.00316 µM) was 103%. It also gave a viability, T/C (second compound 0.0316 µM, first compound 0.01 µM) of 112%, a viability, T/C [1] of 119% and a viability, T/C [2] of 9.44%. The viability, T/C (second compound 0.1 µM, first compound 0.000316 µM) was 96%, the viability, T/C (second compound 0.1 µM, first compound 0.001 µM) was 101% and the viability, T/C (second compound 0.1 µM, first compound 0.00316 µM) was 105%. It also gave a viability, T/C (second compound 0.1 µM, first compound 0.01 µM) of 115%, a viability, T/C [3] of 118% and a viability, T/C [4] of 8.74%. It also gave a viability, T/C (second compound 0.316 µM, first compound 0.000316 µM) of 96.7%, a viability, T/C (second compound 0.316 µM, first compound 0.001 µM) of 108% and a viability, T/C (second compound 0.316 µM, first compound 0.00316 µM) of 104%. The viability, T/C (second compound 0.316 µM, first compound 0.01 µM) was 113%, the viability, T/C [5] was 117% and the viability, T/C [6] was 7.88%. For the same molecule, the viability, T/C (second compound 1 µM, first compound 0.000316 µM) was 95%, the viability, T/C (second compound 1 µM, first compound 0.001 µM) was 99.2% and the viability, T/C (second compound 1 µM, first compound 0.00316 µM) was 109%. For the same molecule, the viability, T/C (second compound 1 µM, first compound 0.01 µM) was 112%, the viability, T/C [7] was 117% and the viability, T/C [8] was 5.23%. For the same molecule, the viability, T/C (second compound 3.16 µM, first compound 0.000316 µM) was 99.5%, the viability, T/C (second compound 3.16 µM, first compound 0.001 µM) was 101% and the viability, T/C (second compound 3.16 µM, first compound 0.00316 µM) was 107%. The viability, T/C (second compound 3.16 µM, first compound 0.01 µM) was 111%, the viability, T/C [9] was 112% and the viability, T/C [10] was 5.57%. The viability, T/C (second compound 10 µM, first compound 0.000316 µM) was 101%, the viability, T/C (second compound 10 µM, first compound 0.001 µM) was 97.2% and the viability, T/C (second compound 10 µM, first compound 0.00316 µM) was 100%. The viability, T/C (second compound 10 µM, first compound 0.01 µM) was 96.6%, the viability, T/C [11] was 69.5% and the viability, T/C [12] was 4.27%.
Work on CC(Nc1ccc2c(c1)OCCn1cc(N3C(=O)OCC3C(F)F)nc1-2)C(N)=O (stereo not drawn) + C#Cc1c(F)ccc2cc(O)cc(-c3ncc4c(N5CC6CCC(C5)N6)nc(OCC56CCCN5CC(F)C6)nc4c3F)c12 yielded an IC50 (second compound 0.0316 µM) of over 10000 nM, an IC50 (second compound 0.1 µM) of over 10000 nM and an IC50 (second compound 0.316 µM) of over 10000 nM. For the same molecule, the IC50 (second compound 1 µM) was over 10000 nM, the IC50 (second compound 3.16 µM) was 9560 nM and the IC50 (second compound 10 µM) was 4910 nM. It also gave a viability, T/C [1] of 99.8%, a viability, T/C [2] of 102% and a viability, T/C [13] of 112%. The viability, T/C [14] was 110%, the viability, T/C [15] was 114% and the viability, T/C [16] was 66.2%. For the same molecule, the viability, T/C [3] was 95%, the viability, T/C [4] was 102% and the viability, T/C [17] was 109%. It also gave a viability, T/C [18] of 114%, a viability, T/C [19] of 113% and a viability, T/C [20] of 73.7%. For the same molecule, the viability, T/C [5] was 97.1%, the viability, T/C [6] was 102% and the viability, T/C [21] was 112%. The viability, T/C [22] was 115%, the viability, T/C [23] was 114% and the viability, T/C [24] was 70.3%. For the same molecule, the viability, T/C [7] was 94.6%, the viability, T/C [8] was 101% and the viability, T/C [25] was 112%. For the same molecule, the viability, T/C [26] was 115%, the viability, T/C [27] was 113% and the viability, T/C [28] was 62.6%. The viability, T/C [9] was 98.4%, the viability, T/C [10] was 102% and the viability, T/C (second compound 3.16 µM, first compound 0.316 µM) was 110%. For the same molecule, the viability, T/C (second compound 3.16 µM, first compound 1 µM) was 114%, the viability, T/C (second compound 3.16 µM, first compound 3.16 µM) was 110% and the viability, T/C (second compound 3.16 µM, first compound 10 µM) was 47.7%. For the same molecule, the viability, T/C [11] was 96.6%, the viability, T/C [12] was 100% and the viability, T/C (second compound 10 µM, first compound 0.316 µM) was 98.6%. The viability, T/C (second compound 10 µM, first compound 1 µM) was 94.4%, the viability, T/C (second compound 10 µM, first compound 3.16 µM) was 70.2% and the viability, T/C (second compound 10 µM, first compound 10 µM) was 17.4%.
In the case of CC(Nc1ccc2c(c1)OCCn1cc(N3C(=O)OCC3C(F)F)nc1-2)C(N)=O (stereo not drawn) + C=CC(=O)N1CCN(c2nc(OCC3CCCN3C)nc3c(F)c(-c4nc(N)cc(C)c4C(F)(F)F)c(Cl)cc23)C(C)C1, the IC50 (second compound 0.00316 µM) is reported as over 10000 nM, the IC50 (second compound 0.01 µM) is reported as over 10000 nM and the IC50 (second compound 0.0316 µM) is reported as over 10000 nM. It also gave an IC50 (second compound 0.1 µM) of over 10000 nM, an IC50 (second compound 0.316 µM) of over 10000 nM and an IC50 (second compound 1 µM) of 8110 nM. For the same molecule, the viability, T/C [29] was 99%, the viability, T/C [30] was 103% and the viability, T/C [31] was 112%. It also gave a viability, T/C [32] of 107%, a viability, T/C [33] of 110% and a viability, T/C [34] of 61.1%. It also gave a viability, T/C [35] of 94.8%, a viability, T/C [36] of 103% and a viability, T/C [37] of 107%. It also gave a viability, T/C [38] of 112%, a viability, T/C [39] of 102% and a viability, T/C [40] of 64.3%. It also gave a viability, T/C [1] of 98%, a viability, T/C [2] of 106% and a viability, T/C [13] of 111%. The viability, T/C [14] was 114%, the viability, T/C [15] was 112% and the viability, T/C [16] was 64.6%. It also gave a viability, T/C [3] of 97.8%, a viability, T/C [4] of 104% and a viability, T/C [17] of 113%. It also gave a viability, T/C [18] of 113%, a viability, T/C [19] of 113% and a viability, T/C [20] of 66.1%. For the same molecule, the viability, T/C [5] was 102%, the viability, T/C [6] was 107% and the viability, T/C [21] was 112%. The viability, T/C [22] was 112%, the viability, T/C [23] was 112% and the viability, T/C [24] was 77.5%. The viability, T/C [7] was 103%, the viability, T/C [8] was 110% and the viability, T/C [25] was 114%. For the same molecule, the viability, T/C [26] was 115%, the viability, T/C [27] was 110% and the viability, T/C [28] was 36.7%.
For CC(=O)OC12COC1CC(O)C1(C)C(=O)C(O)C3=C(C)C(OC(=O)C(O)C(NC(=O)OC(C)(C)C)c4ccccc4)CC(O)(C(OC(=O)c4ccccc4)C21)C3(C)C (stereo not drawn) + C=CC(=O)N1CCN(c2nc(OCC3CCCN3C)nc3c(F)c(-c4nc(N)cc(C)c4C(F)(F)F)c(Cl)cc23)C(C)C1, the IC50 (second compound 0.00316 µM) was under 31.6 nM, the IC50 (second compound 0.01 µM) was under 31.6 nM and the IC50 (second compound 0.0316 µM) was under 31.6 nM. For the same molecule, the IC50 (second compound 0.1 µM) was under 31.6 nM, the IC50 (second compound 0.316 µM) was under 31.6 nM and the IC50 (second compound 1 µM) was under 31.6 nM. It also gave a viability, T/C [29] of 0.81%, a viability, T/C [30] of 0.73% and a viability, T/C [31] of 1.35%. The viability, T/C [32] was 2.03%, the viability, T/C [33] was 1.42% and the viability, T/C [34] was 1.11%. The viability, T/C [35] was 1.77%, the viability, T/C [36] was 0.94% and the viability, T/C [37] was 1.67%. The viability, T/C [38] was 1.93%, the viability, T/C [39] was 1.54% and the viability, T/C [40] was 1.19%. It also gave a viability, T/C [1] of 1.41%, a viability, T/C [2] of 1.13% and a viability, T/C [13] of 1.31%. The viability, T/C [14] was 1.79%, the viability, T/C [15] was 1.72% and the viability, T/C [16] was 0.97%. For the same molecule, the viability, T/C [3] was 2.46%, the viability, T/C [4] was 1.76% and the viability, T/C [17] was 0.8%. It also gave a viability, T/C [18] of 2.06%, a viability, T/C [19] of 1.88% and a viability, T/C [20] of 1.11%. It also gave a viability, T/C [5] of 0.97%, a viability, T/C [6] of 1.22% and a viability, T/C [21] of 0.89%. The viability, T/C [22] was 2.24%, the viability, T/C [23] was 1.05% and the viability, T/C [24] was 1.06%. The viability, T/C [7] was 2.41%, the viability, T/C [8] was 1.89% and the viability, T/C [25] was 1.45%. The viability, T/C [26] was 0.87%, the viability, T/C [27] was 1.43% and the viability, T/C [28] was 1.17%.
